What all share (format): ADME
Series [1] deals with T1, Cytochrome P450 2B1 (Rattus norvegicus, UniProt P00176).
T1 sequence (P00176 whole entry): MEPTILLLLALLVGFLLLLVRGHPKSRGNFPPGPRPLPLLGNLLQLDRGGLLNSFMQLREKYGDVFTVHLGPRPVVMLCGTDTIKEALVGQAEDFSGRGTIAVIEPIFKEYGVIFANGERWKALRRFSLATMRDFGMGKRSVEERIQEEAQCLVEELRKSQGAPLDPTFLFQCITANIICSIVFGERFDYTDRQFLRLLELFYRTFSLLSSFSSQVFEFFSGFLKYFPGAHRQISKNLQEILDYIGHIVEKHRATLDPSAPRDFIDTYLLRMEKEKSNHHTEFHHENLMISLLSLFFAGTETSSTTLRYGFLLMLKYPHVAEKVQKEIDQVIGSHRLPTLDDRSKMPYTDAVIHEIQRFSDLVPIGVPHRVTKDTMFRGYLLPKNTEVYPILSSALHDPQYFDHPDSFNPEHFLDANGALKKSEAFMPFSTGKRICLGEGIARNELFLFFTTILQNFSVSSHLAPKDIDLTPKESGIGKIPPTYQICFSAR
Nature of the series: Mechanism based inhibition of rat cytochrome P450 2B1.

Series [2] deals with T2, Cytochrome P450 3A4 (Homo sapiens, UniProt P08684). Nature of the series: (§1) Mechanism based inhibition of human cytochrome P450 3A4 measured by testosterone 6-beta hydroxylation.
The target of series [3] is T3, Cytochrome P450 1A1 (Homo sapiens, UniProt P04798).
T3 sequence (P04798 whole entry): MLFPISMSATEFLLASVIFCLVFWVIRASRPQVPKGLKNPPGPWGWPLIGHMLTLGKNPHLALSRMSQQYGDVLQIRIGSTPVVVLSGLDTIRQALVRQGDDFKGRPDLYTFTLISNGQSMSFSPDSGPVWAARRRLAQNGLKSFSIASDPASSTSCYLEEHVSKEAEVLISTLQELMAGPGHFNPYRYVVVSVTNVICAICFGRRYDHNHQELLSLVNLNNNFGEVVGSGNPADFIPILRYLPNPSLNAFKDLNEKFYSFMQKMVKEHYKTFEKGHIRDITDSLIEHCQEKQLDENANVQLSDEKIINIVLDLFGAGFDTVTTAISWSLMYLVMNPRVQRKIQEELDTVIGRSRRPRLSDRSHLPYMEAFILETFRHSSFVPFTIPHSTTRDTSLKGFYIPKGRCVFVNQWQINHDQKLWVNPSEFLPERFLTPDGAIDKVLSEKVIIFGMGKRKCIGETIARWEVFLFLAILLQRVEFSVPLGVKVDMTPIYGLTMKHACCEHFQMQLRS
Description: Mechanism based inhibition of human cytochrome P450 1A1 measured by 7-ethoxyresorufin O-deethylation (EROD).

Another series deals with T4, CYP1A1 (Rattus norvegicus, UniProt P00185).
T4 sequence (P00185 whole entry): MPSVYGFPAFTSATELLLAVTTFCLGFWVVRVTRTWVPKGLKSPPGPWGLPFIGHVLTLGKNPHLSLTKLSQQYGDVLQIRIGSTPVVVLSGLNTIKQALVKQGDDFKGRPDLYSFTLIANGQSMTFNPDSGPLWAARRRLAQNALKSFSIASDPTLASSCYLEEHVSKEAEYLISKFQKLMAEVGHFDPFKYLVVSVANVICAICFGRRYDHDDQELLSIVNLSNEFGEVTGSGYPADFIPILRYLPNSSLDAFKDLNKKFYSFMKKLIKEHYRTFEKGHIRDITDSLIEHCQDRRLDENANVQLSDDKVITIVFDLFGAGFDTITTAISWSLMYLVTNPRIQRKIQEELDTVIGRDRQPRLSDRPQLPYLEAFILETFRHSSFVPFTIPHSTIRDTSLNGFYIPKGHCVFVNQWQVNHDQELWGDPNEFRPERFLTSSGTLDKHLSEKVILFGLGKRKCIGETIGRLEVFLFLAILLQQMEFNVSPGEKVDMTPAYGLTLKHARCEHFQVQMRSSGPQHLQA
Description: (§2) Mechanism based inhibition of rat cytochrome P450 CYP1A1 measured by 7-ethoxyresorufin O-deethylation (EROD). To be noted: rat, probe 7-ethoxyresorufin (O-deethylation, EROD).

For series [4], the target named is T5, Cytochrome P450 1A1 (Rattus norvegicus, UniProt P00185).
T5 sequence (P00185 whole entry): T4 sequence (P00185 whole entry)
The description is as §2.

Another series addresses T6, CYP1A2 (Rattus norvegicus, UniProt P04799).
T6 sequence (P04799 whole entry): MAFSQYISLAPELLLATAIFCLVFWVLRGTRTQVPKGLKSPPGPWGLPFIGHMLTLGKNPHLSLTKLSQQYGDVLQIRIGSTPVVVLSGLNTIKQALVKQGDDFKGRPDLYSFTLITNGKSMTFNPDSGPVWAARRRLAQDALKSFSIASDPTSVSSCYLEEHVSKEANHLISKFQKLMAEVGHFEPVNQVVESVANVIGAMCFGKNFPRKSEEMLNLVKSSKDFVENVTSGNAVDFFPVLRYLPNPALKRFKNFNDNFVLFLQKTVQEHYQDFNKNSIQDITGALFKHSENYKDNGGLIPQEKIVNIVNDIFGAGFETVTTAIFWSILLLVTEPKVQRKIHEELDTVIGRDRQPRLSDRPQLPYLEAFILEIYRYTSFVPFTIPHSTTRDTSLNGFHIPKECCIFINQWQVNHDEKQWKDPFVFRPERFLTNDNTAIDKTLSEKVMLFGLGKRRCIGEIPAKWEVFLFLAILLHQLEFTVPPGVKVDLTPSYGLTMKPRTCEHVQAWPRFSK
Description: (§3) Mechanism based inhibition of rat cytochrome P450 CYP1A2 measured by 7-methoxyresorufin O-demethylation (MROD). To be noted: rat, probe 7-methoxyresorufin (O-demethylation, MROD).

Series [5] concerns the target T7, Cytochrome P450 1A2 (Rattus norvegicus, UniProt P04799).
T7 sequence (P04799 whole entry): T6 sequence (P04799 whole entry)
Described as §3.

For series [6], the target named is T8, CYP3A4 (Homo sapiens, UniProt P08684). Nature of the series: (§4) Mechanism based inhibition of human cytochrome P450 3A4 measured by (14C)formaldehyde production from (N-methyl-14C)-erythromycin. To be noted: human, probe (N-methyl-14C)-erythromycin.
Series [7] concerns the target T2, Cytochrome P450 3A4. Described as §4.
For series [8], the target named is T1, Cytochrome P450 2B1. Description: Mechanism based inhibition of rat cytochrome P450 CYP2B1 measured by 7-EFC O-deethylation activity. To be noted: rat.
In series [9] the target is T8, CYP3A4. The description is as §1. To be noted: human, probe testosterone (6-beta hydroxylation).
Series [10] deals with T9, Cytochrome P450 1A2 (Homo sapiens, UniProt P05177).
T9 sequence (P05177 whole entry): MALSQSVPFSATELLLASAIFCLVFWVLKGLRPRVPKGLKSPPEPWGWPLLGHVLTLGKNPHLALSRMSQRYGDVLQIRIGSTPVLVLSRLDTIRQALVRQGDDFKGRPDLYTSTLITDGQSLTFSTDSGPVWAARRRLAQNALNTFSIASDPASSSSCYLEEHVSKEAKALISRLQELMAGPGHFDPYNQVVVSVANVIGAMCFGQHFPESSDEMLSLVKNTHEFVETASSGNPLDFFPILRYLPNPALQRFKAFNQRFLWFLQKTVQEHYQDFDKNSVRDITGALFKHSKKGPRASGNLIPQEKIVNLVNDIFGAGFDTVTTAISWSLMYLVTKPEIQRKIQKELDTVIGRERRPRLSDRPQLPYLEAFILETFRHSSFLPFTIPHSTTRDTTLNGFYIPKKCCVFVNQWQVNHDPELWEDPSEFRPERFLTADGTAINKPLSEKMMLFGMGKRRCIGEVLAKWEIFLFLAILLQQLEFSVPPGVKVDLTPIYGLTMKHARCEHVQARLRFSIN
Nature of the series: Mechanism based inhibition of human cytochrome P450 1A2 measured by 7-ethoxyresorufin O-deethylation (EROD).

T8 sequence (P08684 whole entry): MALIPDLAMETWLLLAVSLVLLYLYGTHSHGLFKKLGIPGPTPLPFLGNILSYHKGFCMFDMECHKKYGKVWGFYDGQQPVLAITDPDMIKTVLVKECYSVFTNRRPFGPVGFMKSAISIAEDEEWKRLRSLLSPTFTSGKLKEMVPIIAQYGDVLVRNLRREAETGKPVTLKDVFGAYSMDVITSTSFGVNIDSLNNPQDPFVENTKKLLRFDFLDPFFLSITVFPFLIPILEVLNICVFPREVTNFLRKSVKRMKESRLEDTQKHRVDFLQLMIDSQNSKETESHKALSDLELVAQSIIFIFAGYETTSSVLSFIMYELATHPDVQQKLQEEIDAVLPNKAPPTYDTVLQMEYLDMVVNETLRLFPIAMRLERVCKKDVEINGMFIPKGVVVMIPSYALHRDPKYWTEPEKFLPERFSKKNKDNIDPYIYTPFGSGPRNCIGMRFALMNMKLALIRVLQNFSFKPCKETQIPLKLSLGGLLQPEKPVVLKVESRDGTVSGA
T2 sequence (P08684 whole entry): as above

With `S=P(N1CC1)(N1CC1)N1CC1` [THIOTEPA], the Ki at Cytochrome P450 2B1 [1] is 31000 nM.
As to `Oc1ccc(/C=C/c2cc(O)cc(O)c2)cc1` [RESVERATROL], the mechanism based inhibition entry at Cytochrome P450 3A4 [2] is reported as “Cytochrome P450 mechanistic inhibitor: PMID 11701226”; on Cytochrome P450 1A1 [3], “Cytochrome P450 mechanistic inhibitor: PMID 11259321”.
Regarding `C=C[C@]1(C)C[C@@H](OC(=O)CSCCN(CC)CC)[C@]2(C)[C@H](C)CC[C@]3(CCC(=O)[C@H]32)[C@@H](C)[C@@H]1O` [TIAMULIN], the mechanism based inhibition entry at Cytochrome P450 3A4 [2] is recorded as “Cytochrome P450 mechanistic inhibitor: PMID 7575636”.
With `C#Cc1ccc(-c2ccccc2)cc1`, the kinact was 0.001 s⁻¹ on CYP1A1 and 0.00167 s⁻¹ on CYP1A2. Further, the Ki came out at 270 nM at Cytochrome P450 1A1 [4] and 870 nM on Cytochrome P450 1A2 [5].
Take `O=c1c2ccccc2nc2n1CCc1c-2[nH]c2ccccc12` [RUTAECARPINE]: the kinact at CYP3A4 [6] is 0.00645 s⁻¹. Further, the Ki on Cytochrome P450 3A4 [7] worked out at 108000 nM.
`O=C1OC[C@H](Cc2ccc3c(c2)OCO3)[C@H]1Cc1ccc2c(c1)OCO2` [HINOKININ]: the maximal inactivation rate constant (kinact) at CYP3A4 [6] is 0.00525 s⁻¹. This molecule also registered a Ki at Cytochrome P450 3A4 [7] of 373 nM.
Turning to `C#Cc1ccc2c(ccc3ccccc32)c1`, the kinact on CYP1A1 was 0.0133 s⁻¹. This molecule had a Ki at Cytochrome P450 1A1 [4] of 250 nM.
For `O=NOO` [PEROXYNITRITE], the mechanism based inhibition result at Cytochrome P450 2B1 [1] was “Cytochrome P450 mechanistic inhibitor: PMID 12588183”; at Cytochrome P450 2B1 [8] it was “Cytochrome P450 mechanistic inhibitor: PMID 9760281”.
Turning to `C#Cc1ccc2ccc3cccc4ccc1c2c34`, the kinact on CYP1A1 is 0.00117 s⁻¹. On Cytochrome P450 1A1 [4], this molecule displayed a Ki of 20 nM.
As for `C#Cc1ccc(NC(C)=O)cc1`, the kinact on CYP1A1 is 0.0015 s⁻¹. The molecule further showed a Ki at Cytochrome P450 1A1 [4] of 8600 nM.
In the case of `COc1cc(C[C@H]2C(O)OC[C@@H]2Cc2ccc3c(c2)OCO3)cc(OC)c1OC` (stereo partly specified), the kinact on CYP3A4 [6] is 0.00422 s⁻¹. For the same molecule, at Cytochrome P450 3A4 [7], the Ki was 82 nM.
The matching figures for `COc1cc(C[C@@H](CO)[C@H](CO)Cc2ccc3c(c2)OCO3)cc(OC)c1OC`: 0.00517 s⁻¹ and 54 nM.
`C#Cc1ccc2ccc3ccccc3c2c1`: the inactivation rate constant (kinact) on CYP1A1 was 0.00167 s⁻¹. In addition, on Cytochrome P450 1A1 [4], the Ki came out at 90 nM.
Take `CNCCCC(C#N)(c1ccc(OC)c(OC)c1)C(C)C` (stereo unspecified): the kinact on CYP3A4 [9] was 0.00117 s⁻¹. Moreover, at Cytochrome P450 3A4 [2], the Ki amounted to 7930 nM.
Turning to `Cc1cc(C)c(SCC[n+]2noc([O-])c2C)c(C)c1`, the mechanism based inhibition entry at Cytochrome P450 3A4 [2], on Cytochrome P450 1A1 [3] and on Cytochrome P450 1A2 [10] was “Cytochrome P450 mechanistic inhibitor: PMID 9107543” in each case.

For orientation: kinact means the rate constant of inactivation at saturating inhibitor.

The values above are taken from ChEMBL document CHEMBL1743341, “Cytochrome p450 enzymes mechanism based inhibitors: common sub-structures and reactivity” (Curr Drug Metab, 2005).
